US20120277312A1, “Ethylgallate and Related Compounds as a Treatment for Sepsis and Septic Shock” (priority 2009, published 2012)
Entries after “also recorded” stand apart in the source; their conditions may differ.

Tested on: POX-induced vasodilation in carotid and superior mesenteric arterial preparations
Test: Peroxacetic acid (POX)-induced vasodilation in carotid and superior mesenteric arterial preparations
Design: species or system canine
Conditions: not given
Text: POX is a hydroperoxide (slightly different from the molecule of hydrogen peroxide) that also may be released in septic shock by macrophages and inflammatory cells. […] However, the pathway by which POX caused vasodilation is much different than that caused by lysozyme. […] To some extent, therefore, the improvement in hemodynamics previously observed when ethyl-gallate was infused in our in-vivo study could have also been related to ethyl-gallate's inhibition of the POX pathway in addition to ethyl-gallate's inhibitory-effect on lysozyme mediated pathways.
The only similarity found between lysozyme and POX is that POX's mechanism of action is also independent of the endothelium and nitric oxide formation, since we could not prevent POX's vasodilatory effect by removal of the endothelium or by nitric oxide inhibition. In contrast to lysozyme, POX seems to cause vasodilation is by activation of an enzyme in the vascular tissue called prostaglandin H synthase (PHS). PHS has an important mechanism of action, in that after activation by hydroperoxides (such as POX), it can in turn activate the cyclooxygenase pathway leading to vasodilation.

Molecule | inhibition of vasodilation caused by POX
[Ba] [barium] | could be prevented
COc1ccc2c(c1)c(CC(=O)O)c(C)n2C(=O)c1ccc(Cl)cc1 [indomethacin] | could be inhibited
[K+] [potassium] | could be prevented

Tested on: not listed separately
Test: Hydrogen peroxide scavenging (Amplex Red assay, electrochemical techniques, glucosidase/glucose assay)
Format: biochemical
Conditions: multiple methodologies
Text: (§1) This generation appears to involve the mechanism described by Wentworth et al in which proteins can utilize water as a catalyst to generate H2O2 (12) Once formed by lysozyme, H2O2 then reacts with intrinsic catalase to form a species of catalase termed Compound I (2) Compound I then acts to generate cyclic-guanosine monophosphate which in turn causes vasodilation. […] These as well as other mechanisms may account for the efficacy of ethyl-gallate treatment in septic shock.

Molecule | scavenging of hydrogen peroxide
O=C(O)c1cc(O)c(O)c(O)c1 [gallic acid, reference compound] | can scavenge

Tested on: lysozyme's vasodilatory effect in canine carotid artery preparation
Test: Lysozyme-induced vasodilation in canine carotid artery preparation (in-vitro)
Conditions: canine carotid artery preparation, in-vitro
Procedure: Lysozyme produces vasodilation by intrinsically generating hydrogen peroxide (H2O2) that leads to activation of signaling pathways resulting in these hemodynamic effects (7).
Ethyl gallate is added to food as an antioxidant. It is the ethyl ester of gallic acid. Though found naturally in a variety of plant sources including walnuts (8), ethyl gallate is produced from gallic acid and ethanol (9). […] It is of note that if a substance could not inhibit lysozyme's effect in-vitro, then it would be worthless to pursue an in-vivo study.

Molecule | block of lysozyme's vasodilatory effect
catechin gallate | failed to block
O=C1O[C@H]([C@@H](O)CO)C([O-])=C1O.[Na+] [sodium ascorbate] | failed to block
N[C@@H](CCC(=O)N[C@@H](CS)C(=O)NCC(=O)O)C(=O)O [reduced glutathione] | failed to block
C=C(C)[C@H]1CC=C(C)CC1 [limonene] | failed to block
CCCOC(=O)c1cc(O)c(O)c(O)c1 [propyl gallate] | failed to block
COc1ccccc1O [guaicol] | failed to block
CC(=O)N[C@@H](CS)C(=O)O [N-acetylcyteine] | failed to block
O=C([O-])c1ccccc1.[Na+] [sodium benzoate] | failed to block
CC(/C=C/C=C(\C)C(=O)O[C@@H]1O[C@H](CO[C@@H]2O[C@H](CO)[C@@H](O)[C@H](O)[C@H]2O)[C@@H](O)[C@H](O)[C@H]1O)=C\C=C\C=C(C)\C=C\C=C(/C)C(=O)O[C@@H]1O[C@H](CO[C@@H]2O[C@H](CO)[C@@H](O)[C@H](O)[C@H]2O)[C@@H](O)[C@H](O)[C@H]1O [crocin] | failed to block
CCOC(=O)c1ccc(O)c(O)c1 [ethyl 3,4-dihydroxybenzoate] | blocked
COc1cc(/C=C/C(=O)CC(=O)/C=C/c2ccc(O)c(OC)c2)ccc1O [curcumin] | failed to block
O=C(O[C@@H]1Cc2c(O)cc(O)cc2O[C@@H]1c1ccc(O)c(O)c1)c1cc(O)c(O)c(O)c1 [epicathechin gallate] | failed to block
O=C(O[C@@H]1Cc2c(O)cc(O)cc2O[C@@H]1c1cc(O)c(O)c(O)c1)c1cc(O)c(O)c(O)c1 [epigalloccatechin gallate] | failed to block
OC[C@@H](O)[C@@H](O)[C@H](O)[C@H](O)CO [mannitol] | worked
O=c1cc(-c2ccc(O)c(O)c2)oc2cc(O)cc(O)c12 [luteolin] | failed to block
O=C(O)c1cc(O)c(O)c(O)c1 [gallic acid, reference compound] | could not block; also recorded: failed to block
COC(=O)c1cc(O)c(O)c(O)c1 [methyl gallate] | blocked
O=c1oc2c(O)c(O)cc3c(=O)oc4c(O)c(O)cc1c4c23 [ellagic acid] | failed to block
O.O.O=c1c(O)c(-c2ccc(O)c(O)c2)oc2cc(O)cc(O)c12 [quercetin dihydrate] | failed to block

Tested on: not listed separately
Test: In-vivo study of mannitol (not further described)
Conditions: not given
Procedure: Ethyl gallate is added to food as an antioxidant. It is the ethyl ester of gallic acid. Though found naturally in a variety of plant sources including walnuts (8), ethyl gallate is produced from gallic acid and ethanol (9). […] Thus, ethyl gallate, methyl gallate, and ethyl 3,4 dihydroxybenzoate has unique properties for the treatment of septic shock. It is of note that if a substance could not inhibit lysozyme's effect in-vitro, then it would be worthless to pursue an in-vivo study.

Molecule | effect in-vivo
OC[C@@H](O)[C@@H](O)[C@H](O)[C@H](O)CO [mannitol] | did not have a positive effect

Target: T1, catalase (Homo sapiens, UniProt P04040)
T1 sequence (P04040 2-527 limits assumed): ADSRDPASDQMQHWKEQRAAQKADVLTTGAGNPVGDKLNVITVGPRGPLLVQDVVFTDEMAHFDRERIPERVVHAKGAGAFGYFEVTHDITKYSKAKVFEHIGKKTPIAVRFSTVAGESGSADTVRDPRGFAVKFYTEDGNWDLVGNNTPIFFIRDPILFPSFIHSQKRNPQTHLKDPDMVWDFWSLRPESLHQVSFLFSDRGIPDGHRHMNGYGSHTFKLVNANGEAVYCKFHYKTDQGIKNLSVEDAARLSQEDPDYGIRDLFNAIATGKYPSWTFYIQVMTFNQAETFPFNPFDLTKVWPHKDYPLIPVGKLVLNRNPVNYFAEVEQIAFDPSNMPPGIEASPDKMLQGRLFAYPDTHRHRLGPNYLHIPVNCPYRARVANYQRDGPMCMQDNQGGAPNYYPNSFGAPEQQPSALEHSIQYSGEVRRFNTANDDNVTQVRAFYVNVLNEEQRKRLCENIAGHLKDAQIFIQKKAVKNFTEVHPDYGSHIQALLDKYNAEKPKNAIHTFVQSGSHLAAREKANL
Test: Conversion of catalase to compound I (wave-scan spectroscopy)
Format: biochemical
Conditions: not given
Text: as §1

Molecule | inhibition of degradation of catalase to compound I
O=C(O)c1cc(O)c(O)c(O)c1 [gallic acid, reference compound] | can also prevent

Target: T2, lysozyme (Homo sapiens, UniProt P61626)
T2 sequence (P61626 19-148): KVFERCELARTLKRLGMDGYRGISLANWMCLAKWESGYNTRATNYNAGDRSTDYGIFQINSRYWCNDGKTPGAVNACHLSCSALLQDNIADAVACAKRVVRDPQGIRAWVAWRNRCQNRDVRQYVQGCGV
Test: Lysozyme-induced hydrogen peroxide generation measured by Ultra Amplex Red assay
Format: biochemical
Conditions: 6.5×10^−6 mol/L lysozyme

Molecule | inhibition of lysozyme-induced hydrogen peroxide generation
C[S+](C)[O-] [DMSO] | do not inhibit
OC[C@@H](O)[C@@H](O)[C@H](O)[C@H](O)CO [mannitol] | do not inhibit
